C[C@@H]1O[C@@H](OC[C@H]2O[C@@H](Oc3c(-c4ccc(OCCO)c(OCCO)c4)oc4cc(OCCO)cc(O)c4c3=O)[C@H](O)[C@@H](O)[C@@H]2O)[C@H](O)[C@H](O)[C@H]1O
solubility (mole fraction)
Settings	288.15 K	293.15 K	298.15 K	303.15 K	308.15 K	313.15 K	318.15 K	323.15 K
in 1,4-dioxane	0.000517	0.000596	0.000724	0.000865	0.00103	0.00121	0.00144	0.00171
in acetone	3.1e-05	3.4e-05	4.2e-05	5.5e-05	7e-05	9.1e-05	0.000124	0.000162
in acetonitrile	8e-06	1.2e-05	1.5e-05	2.1e-05	2.8e-05	3.8e-05	4.9e-05	7e-05
in ethanol	0.000228	0.000252	0.00029	0.000346	0.000407	0.000468	0.000547	0.000632
in isobutanol	4.1e-05	5.4e-05	7e-05	9e-05	0.000125	0.000176	0.000238	0.000312
in isopropanol	9.3e-05	0.000119	0.000161	0.000207	0.000268	0.000329	0.000403	0.000519
in methanol	0.000245	0.000291	0.000362	0.00045	0.000573	0.000714	0.000876	0.00107
in n-butanol	8e-05	0.000102	0.000142	0.000187	0.000248	0.000312	0.000382	0.000494
in n-pentanol	7.1e-05	9e-05	0.000107	0.000132	0.00017	0.000222	0.000289	0.000377
in n-propanol	0.000144	0.000177	0.000215	0.000258	0.000317	0.000377	0.000458	0.000562
in sec-butanol	8.6e-05	0.000108	0.00015	0.000194	0.000254	0.000319	0.000391	0.000505
